Source: patent US20180037923A1, “SELECTIVE DETECTION OF LACTIC ACID AND/OR ACETIC ACID BACTERIA OR OF FUNGI” (priority 2015, published 2018)

Tests used:
[1] = system: Sacch. Cerevisae Saflager S23; experiment: Agar plate count after contact with antifungal; assay type: cell-based, Saccharomyces cerevisae; conditions: 400 mg/L
Text: (§1) The word “bactericide” refers to a treatment having the effect of reducing a bacterial population by at least three decimal logarithms of colony forming units/ml on an agar plate count of a sample after treatment.
(§2) The toxicity results on yeasts and on bacteria are presented in the table below displaying the duration of exposure of the fungal flora to molecule A1 and the associated fluorescence measurement: yeasts lysis after exposure to the antifungal was confirmed by microscopic examination and methylene blue staining.
(§3) The words “contact time” refer to below, the time of exposure of the microorganisms to the fungicidal product, here molecule A1.
(§4) Below: “No CFU” is the abbreviation for “No Colony forming unit on agar plate count”.
(§5) The toxicity results on yeasts and on bacteria are presented in the table below displaying the duration of exposure of the fungal flora to the molecule A2 and are obtained by enumeration on MRS agar media.

[2] = system: Sacch. Cerevisae DSM 70449; experiment: Agar plate count after contact with antifungal; assay type: cell-based, Saccharomyces cerevisae; conditions: for Agar plate count contact time 4 h: 400 mg/L
Text: as §1, §2, §3, §4, §5

Sacch. Diastaticus IFBM = experiment: Agar plate count after contact with antifungal; assay type: cell-based, Saccharomyces diastaticus
Text: as §1, §2, §3, §4, §5

G. oxydans DSM 7145 = experiment: Agar plate count after contact with antifungal; assay type: cell-based, Gluconobacter oxydans
Text: as §1, §2, §3, §4, §5

[3] = system: lactic acid bacteria and acetic acid bacteria; experiment: Bactericidal action on the bacterial flora (conclusion from agar plate counts); assay type: cell-based; conditions: for Bactericidal action on lactic acid and acetic acid flora: bactericide = reduction by at least three decimal logarithms of CFU/ml
Text: as §1, §2, §5

[4] = system: Lactobacillus paracasei IFBM; experiment: Agar plate count after contact with antifungal; assay type: cell-based; conditions: count at contact time 0 h 1.4.10^7 CFU/mL
Text: as §1, §2, §3, §4, §5

Dekkera anomala IFBM = experiment: Agar plate count after contact with antifungal; assay type: cell-based
Text: as §1, §2, §3, §4, §5

[5] = system: Lactobacillus lindneri DSM 20690; experiment: Agar plate count after contact with antifungal; assay type: cell-based
Text: as §1, §2, §3, §4, §5

[6] = system: Lactobacillus brevis IFBM; experiment: Agar plate count after contact with antifungal; assay type: cell-based; conditions: count at contact time 0 h 7.10^5 CFU/mL
Text: as §1, §2, §3, §4, §5

[7] = system: Acetobacter aceti DSM 3508; experiment: Agar plate count after contact with antifungal; assay type: cell-based; conditions: count at contact time 0 h 2.9.10^7 CFU/mL
Text: as §1, §2, §3, §4, §5

[8] = system: Lactobacillus parabuchneri DSM 5708; experiment: Agar plate count after contact with antifungal; assay type: cell-based; conditions: count at contact time 0 h 1.4.10^6 CFU/mL
Text: as §1, §2, §3, §4, §5

[9] = system: Zyggosaccharomyces bailii; experiment: Agar plate count after contact with antifungal; assay type: cell-based; conditions: 400 mg/L
Text: as §1, §2, §3, §4, §5

[10] = system: Oenococcus oeni DSM 20252; experiment: Agar plate count after contact with antifungal; assay type: cell-based
Text: as §1, §2, §3, §4, §5

Pedicoccus damnosus IFBM = experiment: Agar plate count after contact with antifungal; assay type: cell-based
Text: as §1, §2, §3, §4, §5

[11] = system: Brettanomyces bruxellensis Wyeast labs; experiment: Agar plate count after contact with antifungal; assay type: cell-based
Text: as §1, §2, §3, §4, §5

[12] = system: yeast populations versus lactic acid and acetic acid bacteria; experiment: Concentration threshold for being antifungal while non-bactericidal; assay type: cell-based; conditions: estimated
Experimental: It is estimated that for the molecule A1 the concentration threshold allowing to obtain the effect of the invention of being non-bactericidal for the lactic acid and acetic acid bacteria while being antifungal for the yeast populations is comprised within 50 mg/l or 50 mg/l and 100 mg/l.
In order to determine whether a particular molecule is suitable for the invention, a person skilled in the art may constitute a first list of antifungal products and a second list of non-bactericidal products for bacteria and select the products appearing in the first and second list for which the fungicidal activity intervenes prior to the bactericidal activity. However, an experimental verification of the fungicidal activity will be necessary to determine the minimum antifungal concentration per mg/L or in microgram per milliliter depending on the targeted fungal flora.

[13] = count at contact time 0 h 2.10^5 CFU/mL
[14] = 200 mg/L, count at contact time 0 h 8.10^8 CFU/mL
[15] = 400 mg/L, count at contact time 0 h 8.10^7 CFU/mL
[16] = 200 mg/L, count at contact time 0 h 6.10^6 CFU/mL
[17] = 400 mg/L, count at contact time 0 h 6.10^5 CFU/mL
[18] = 200 mg/L, count at contact time 0 h 4.10^9 CFU/mL
[19] = 400 mg/L, count at contact time 0 h 4.10^7 CFU/mL
[20] = 200 mg/L, count at contact time 0 h 7.2.10^5 CFU/mL
[21] = 400 mg/L, count at contact time 0 h 1.1.10^5 CFU/mL

CC[C@H](C)C[C@H](C)CCCCCCCCC(=O)N[C@H]1C[C@@H](O)[C@@H](NCCN)NC(=O)[C@@H]2[C@@H](O)CCN2C(=O)[C@H]([C@H](O)CCN)NC(=O)[C@H]([C@H](O)[C@@H](O)c2ccc(O)cc2)NC(=O)[C@@H]2C[C@@H](O)CN2C(=O)[C@H]([C@@H](C)O)NC1=O [Molecule A5, caspofungin]
Agar plate count contact time 4 h ([1]; count at contact time 0 h 3.10^5 CFU/mL): No CFU | Agar plate count contact time 4 h [2, 13]: No CFU | Agar plate count contact time 4 h (Sacch. Diastaticus IFBM; 400 mg/L, count at contact time 0 h 4.10^4 CFU/mL): No CFU | Agar plate count contact time 4 h (G. oxydans DSM 7145; [14]): 1.10^9 CFU/mL | Agar plate count contact time 4 h (G. oxydans DSM 7145; [15]): 9.10^7 CFU/mL | Bactericidal action on acetic acid bacteria and the lactic acid bacteria oenooccus oeni ([3]; doses of 200 mg/liter): non-bactericidal | Bactericidal action on acetic acid bacteria and the lactic acid bacteria oenooccus oeni ([3]; doses of 400 mg/liter): non-bactericidal | Agar plate count contact time 4 h ([4]; 200 mg/L): 1.1.10^4 CFU/mL | Agar plate count contact time 4 h ([4]; 400 mg/L): 1.10^2 CFU/mL | Agar plate count contact time 4 h (Dekkera anomala IFBM; 400 mg/L, count at contact time 0 h 1.4.10^4 CFU/mL): No CFU | Agar plate count contact time 4 h [5, 16]: 9.10^1 CFU/mL | Agar plate count contact time 4 h [5, 17]: 1.10^2 CFU/mL | Agar plate count contact time 4 h ([6]; 200 mg/L): 1.10^2 CFU/mL | Agar plate count contact time 4 h ([6]; 400 mg/L): 2.10^2 CFU/mL | Agar plate count contact time 4 h ([7]; 200 mg/L): 1.10^5 CFU/mL | Agar plate count contact time 4 h ([7]; 400 mg/L): 2.10^6 CFU/mL | Agar plate count contact time 4 h ([8]; 200 mg/L): No CFU | Agar plate count contact time 4 h ([8]; 400 mg/L): No CFU | Agar plate count contact time 4 h [9, 13]: No CFU | Agar plate count contact time 4 h [10, 18]: 6.10^9 CFU/mL | Agar plate count contact time 4 h [10, 19]: 5.10^7 CFU/mL | Agar plate count contact time 4 h (Pedicoccus damnosus IFBM; [20]): No CFU | Agar plate count contact time 4 h (Pedicoccus damnosus IFBM; [21]): No CFU | Agar plate count contact time 4 h [11, 16]: No CFU | Agar plate count contact time 4 h ([11]; 400 mg/L, count at contact time 0 h 1.7.10^4 CFU/mL): No CFU

CCC(C)(C)c1ccc(CC(C)CN2C[C@@H](C)O[C@@H](C)C2)cc1 (some centres unmarked) [Molecule A2, Amorolfine]
Agar plate count contact time 4 h ([1]; count at contact time 0 h 3.2.10^5 CFU/mL): No CFU | Agar plate count contact time 4 h ([2]; count at contact time 0 h 5.8.10^5 CFU/mL): No CFU | Agar plate count contact time 4 h (Sacch. Diastaticus IFBM; 400 mg/L, count at contact time 0 h 2.10^6 CFU/mL): No CFU | Agar plate count contact time 4 h (G. oxydans DSM 7145; [14]): 1.10^9 CFU/mL | Agar plate count contact time 4 h (G. oxydans DSM 7145; [15]): 9.10^7 CFU/mL | Bactericidal action on lactic acid and acetic acid flora ([3]; doses of 200 mg/liter): neither bactericidal for the lactic acid flora nor bactericidal for the acetic acid flora | Bactericidal action on lactic acid and acetic acid flora ([3]; doses of 400 mg/liter): neither bactericidal for the lactic acid flora nor bactericidal for the acetic acid flora | Agar plate count contact time 4 h ([4]; 200 mg/L): 5.10^7 CFU/mL | Agar plate count contact time 4 h ([4]; 400 mg/L): 4.10^7 CFU/mL | Agar plate count contact time 4 h (Dekkera anomala IFBM; 400 mg/L, count at contact time 0 h 5.10^3 CFU/mL): No CFU | Agar plate count contact time 4 h [5, 16]: 1.10^6 CFU/mL | Agar plate count contact time 4 h [5, 17]: 5.10^5 CFU/mL | Agar plate count contact time 4 h ([6]; 200 mg/L): 1.10^6 CFU/mL | Agar plate count contact time 4 h ([6]; 400 mg/L): 8.10^5 CFU/mL | Agar plate count contact time 4 h ([7]; 200 mg/L): 6.10^6 CFU/mL | Agar plate count contact time 4 h ([7]; 400 mg/L): 9.10^6 CFU/mL | Agar plate count contact time 4 h ([8]; 200 mg/L): 5.10^5 CFU/mL | Agar plate count contact time 4 h ([8]; 400 mg/L): 3.10^4 CFU/mL | Agar plate count contact time 4 h ([9]; count at contact time 0 h 2.2.10^6 CFU/mL): No CFU | Agar plate count contact time 4 h [10, 18]: 6.10^9 CFU/mL | Agar plate count contact time 4 h [10, 19]: 5.10^7 CFU/mL | Agar plate count contact time 4 h (Pedicoccus damnosus IFBM; [20]): 1.5.10^5 CFU/mL | Agar plate count contact time 4 h (Pedicoccus damnosus IFBM; [21]): 1.10^4 CFU/mL | Agar plate count contact time 4 h [11, 16]: No CFU | Agar plate count contact time 4 h ([11]; 400 mg/L, count at contact time 0 h 1.8.10^6 CFU/mL): No CFU

C[C@@H](c1ncncc1F)[C@](O)(Cn1cncn1)c1ccc(F)cc1F [Molecule A3, voriconazole]
Agar plate count contact time 18 h (Sacch. Diastaticus IFBM; 400 mg/L, count at contact time 0 h 1.10^4 CFU/mL): No CFU | Agar plate count contact time 18 h (G. oxydans DSM 7145; [14]): 1.10^9 CFU/mL | Agar plate count contact time 18 h (G. oxydans DSM 7145; [15]): 1.10^8 CFU/mL | Bactericidal action on lactic acid and acetic acid flora ([3]; doses of 200 mg/liter): neither bactericidal for the lactic acid flora nor bactericidal for the acetic acid flora | Bactericidal action on lactic acid and acetic acid flora ([3]; doses of 400 mg/liter): neither bactericidal for the lactic acid flora nor bactericidal for the acetic acid flora | Agar plate count contact time 18 h ([4]; 200 mg/L): 5.10^7 CFU/mL | Agar plate count contact time 18 h ([4]; 400 mg/L): 2.10^7 CFU/mL | Agar plate count contact time 18 h (Dekkera anomala IFBM; 400 mg/L, count at contact time 0 h 7.10^5 CFU/mL): No CFU | Agar plate count contact time 18 h [5, 16]: 1.10^6 CFU/mL | Agar plate count contact time 18 h [5, 17]: 7.10^4 CFU/mL | Agar plate count contact time 18 h ([6]; 200 mg/L): 1.10^6 CFU/mL | Agar plate count contact time 18 h ([6]; 400 mg/L): 1.10^6 CFU/mL | Agar plate count contact time 18 h ([7]; 200 mg/L): 6.10^6 CFU/mL | Agar plate count contact time 18 h ([7]; 400 mg/L): 4.10^7 CFU/mL | Agar plate count contact time 18 h ([8]; 200 mg/L): 5.10^5 CFU/mL | Agar plate count contact time 18 h ([8]; 400 mg/L): 6.10^5 CFU/mL | Agar plate count contact time 18 h [10, 18]: 6.10^9 CFU/mL | Agar plate count contact time 18 h [10, 19]: 1.10^8 CFU/mL | Agar plate count contact time 18 h (Pedicoccus damnosus IFBM; [20]): 1.5.10^5 CFU/mL | Agar plate count contact time 18 h (Pedicoccus damnosus IFBM; [21]): 2.10^4 CFU/mL | Agar plate count contact time 18 h [11, 16]: 9.10^1 CFU/mL | Agar plate count contact time 18 h ([11]; 400 mg/L, count at contact time 0 h 8.10^4 CFU/mL): No CFU

C[C@@H]1C[C@@H]([C@H](O)CC2CC(=O)NC(=O)C2)C(=O)[C@@H](C)C1 [Molecule A4, cycloheximide]
Agar plate count contact time 18 h ([2]; Test No 2: 400 mg/L, count at contact time 0 h 5.10^4 CFU/mL): No CFU | Agar plate count contact time 18 h (Sacch. Diastaticus IFBM; Test No 2: 400 mg/L, count at contact time 0 h 4.10^4 CFU/mL): No CFU | Agar plate count contact time 18 h (G. oxydans DSM 7145; [15]): 1.10^8 CFU/mL | Effect on bacteria cell integrity ([3]; doses of 400 mg/liter or more): preserves bacteria cell integrity | Agar plate count contact time 18 h ([4]; 400 mg/L): 3.10^7 CFU/mL | Agar plate count contact time 18 h (Dekkera anomala IFBM; Test No 2: 400 mg/L, count at contact time 0 h 1.10^5 CFU/mL): 1.2.10^1 CFU/mL | Agar plate count contact time 18 h [5, 17]: 1.10^5 CFU/mL | Agar plate count contact time 18 h ([6]; 400 mg/L): 2.10^6 CFU/mL | Agar plate count contact time 18 h ([7]; 400 mg/L): 9.10^7 CFU/mL | Agar plate count contact time 18 h ([8]; 400 mg/L): 6.10^6 CFU/mL | Agar plate count contact time 18 h [10, 19]: 1.10^8 CFU/mL | Agar plate count contact time 18 h (Pedicoccus damnosus IFBM; [21]): 4.10^4 CFU/mL | Agar plate count contact time 18 h ([11]; Test No 2: 400 mg/L, count at contact time 0 h 7.3.10^5 CFU/mL): No CFU | Concentration threshold allowing to obtain the effect of the invention [12]: greater than 300 mg/l
